Source: patent US20220266206A1, “FORMULATION AND PROCESS FOR MANUFACTURING A HEAT STABLE OIL-IN-WATER EMULSION FOR CANNABIS BEVERAGES IN PLASTIC BOTTLES” (Gaia Botanicals LLC DBA Bluebird Botanicals, priority 2021, published 2022)

Experiment: Solubility of CBD in MCT oil (fractionated coconut oil)
Type: physicochemical
Details: carrier oil: fractionated coconut oil (MCT oil)
From the text: In first mixing step 100, cannabinoid extract may be advantageously dissolved into a carrier oil to create oil phase 150. An aspect of the current invention is the use of a carrier oil, which overcomes the issues of aqueous solubility for the cannabinoid extract, particularly CBD. In its pure form, CBD is a non-polar crystalline solid which in the absence of an oil or alcohol will not readily dissolve to form a stable emulsion with the gum blend. By dissolving the CBD in a carrier oil in first mixing step 100, the CBD will be readily dissolved into the oil which increases its suitability for emulsion formation. In an embodiment of the invention, CBD is added to fractionated coconut oil (MCT oil) in first mixing step 100 using an immersion blender to thoroughly mix, then the mixture is transferred to a magnetic stir plate to allow for slow gentle mixing of the oil until the CBD is completely dissolved. First mixing step 100 can comprise immersion blending at a high shear rate followed by a slower mixing utilizing a stir bar. Heat may be used to speed the process but may result on oxidation of the CBD as well as result in off-flavors. MCT oil offers several advantages over other possible carrier oils as it is both colorless and nearly flavorless, and it readily dissolves CBD at concentrations as high as 30%. […]

Question: With `C=C(C)[C@@H]1CCC(C)=C[C@H]1c1c(O)cc(CCCCC)cc1O` [CBD, cannabidiol] as the molecule, how does the “concentration of CBD readily dissolved in MCT oil” value read?
Answer: Its value is no more than 30%.
